According to PMC10369073, “Production, identification, in silico analysis, and cytoprotection on H2O2-induced HUVECs of novel angiotensin-I-converting enzyme inhibitory peptides from Skipjack tuna roes” (Frontiers in Nutrition, 2023):
Ends that are not written are not given here. Peptide text beside a SMILES is read from it.

Experiments:
ACE = target: T1, ACE (Oryctolagus cuniculus, UniProt P12822); test: ACE inhibitory (ACEi) activity, FAPGG substrate, hippuric acid by HPLC at 228 nm; assay type: biochemical; conditions: at 1.5 mg/mL, mean ± SD, n = 3
T1 sequence (P12822 34-1310): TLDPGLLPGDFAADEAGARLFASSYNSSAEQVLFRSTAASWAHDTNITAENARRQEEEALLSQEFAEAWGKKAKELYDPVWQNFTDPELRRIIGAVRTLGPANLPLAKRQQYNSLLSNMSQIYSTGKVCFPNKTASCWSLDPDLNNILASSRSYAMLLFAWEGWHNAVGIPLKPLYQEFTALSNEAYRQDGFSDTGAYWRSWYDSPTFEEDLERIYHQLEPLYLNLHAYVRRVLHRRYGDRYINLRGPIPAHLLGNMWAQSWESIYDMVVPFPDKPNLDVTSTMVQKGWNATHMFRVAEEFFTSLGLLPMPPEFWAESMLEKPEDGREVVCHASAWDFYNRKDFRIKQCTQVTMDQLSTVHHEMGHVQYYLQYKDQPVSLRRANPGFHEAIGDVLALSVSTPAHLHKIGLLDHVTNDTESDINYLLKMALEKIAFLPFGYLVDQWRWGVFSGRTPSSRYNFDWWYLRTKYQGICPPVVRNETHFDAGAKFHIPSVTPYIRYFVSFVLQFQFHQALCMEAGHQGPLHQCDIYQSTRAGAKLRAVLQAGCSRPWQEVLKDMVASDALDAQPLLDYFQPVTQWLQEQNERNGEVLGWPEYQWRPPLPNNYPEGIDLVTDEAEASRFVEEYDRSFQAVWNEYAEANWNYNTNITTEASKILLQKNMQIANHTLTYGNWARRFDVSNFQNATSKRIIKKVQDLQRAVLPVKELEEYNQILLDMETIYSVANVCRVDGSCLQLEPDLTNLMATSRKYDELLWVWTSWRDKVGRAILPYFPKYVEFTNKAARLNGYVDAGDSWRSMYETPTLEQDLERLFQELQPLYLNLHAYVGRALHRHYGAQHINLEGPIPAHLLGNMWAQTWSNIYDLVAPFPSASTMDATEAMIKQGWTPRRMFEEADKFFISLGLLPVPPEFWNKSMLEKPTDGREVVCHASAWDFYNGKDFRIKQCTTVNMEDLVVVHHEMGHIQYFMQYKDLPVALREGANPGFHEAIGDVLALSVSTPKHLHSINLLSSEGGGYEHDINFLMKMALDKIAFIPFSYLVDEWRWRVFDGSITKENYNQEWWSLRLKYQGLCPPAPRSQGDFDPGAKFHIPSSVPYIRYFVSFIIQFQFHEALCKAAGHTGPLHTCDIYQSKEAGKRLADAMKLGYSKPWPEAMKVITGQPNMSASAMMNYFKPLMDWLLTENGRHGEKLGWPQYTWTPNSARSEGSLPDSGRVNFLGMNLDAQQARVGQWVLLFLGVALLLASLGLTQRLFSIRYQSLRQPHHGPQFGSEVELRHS
Protocol: The ACEi activity was measured by employing FAPGG as the substrate with the following modifications reported by Zhao et al. ([18]). In brief, the initial assay volume consisted of 50 μL of the substrate (3 mM), 50 μL of the ACE enzyme solution containing 1.25 mU of declared enzyme activity, and 50 μL of assay sample. All these solutions were incubated for 30 min at 37°C in a water bath first without mixing and then for an additional 30 min after mixing. ACE activity was stopped by 150 μL of glacial acetic acid. After that, the reaction mixture was separated by HPLC at 228 nm to determine the hippuric acid (HA) content produced due to ACE activity on the substrate. The control reaction mixture contained 50 μL of buffer instead of the assay sample and the control was expected to liberate the maximum amount of HA from the substrate due to uninhibited ACE activity. The percent inhibition of ACE activity was calculated as follows:
Inhibition activity(%)=[(HAcontrol−HAsample)/HAcontrol]×100%.
The IC50 value is the concentration of peptide inhibiting 50% activity of ACE.

HUVECs [1] = test: NO production in HUVECs (assay kit); assay type: cell-based, human; conditions: for NO content in NE-treated HUVECs: peptide 200 μM plus NE, NE alone 18.59 ± 0.82 μM; for NO level in HUVECs: peptide 200 μM, 24 h, control 33.68 ± 0.96 μM, mean ± SD, n = 3, SD
Protocol: (§1) HUVECs were cultured in DMEM supplemented with 100 µg/mL streptomycin, 10% FBS (v/v), and 100 U/mL penicillin at 37°C in a humidified 5% CO2 atmosphere for 24 h.
(§2) After treating with ACEi peptides (TRP3, TRP6, TRP9, or TRP12, respectively) for 24 h, NO and ET-1 contents were separately determined by employing human NO and ET-1 assay kit as per manufactures’ protocol ([18]).

HUVECs [2] = test: ET-1 secretion in HUVECs (assay kit); assay type: cell-based, human; conditions: for ET-1 content in NE-treated HUVECs: peptide 200 μM plus NE, NE alone 73.57 ± 3.09 pg./mL; for ET-1 content in HUVECs: peptide 200 μM, control 55.37 ± 2.53 pg./mL, mean ± SD, n = 3, SD
Protocol: as §1, §2

H2O2-induced HUVECs [3] = test: ROS level in H2O2-induced HUVECs, DCFH2-DA assay; assay type: cell-based, human; conditions: 200 μM pretreatment, 300 μM H2O2, model 146.6 ± 3.81%, mean ± SD, n = 3
Protocol: (§3) The HUVECs were cultured for 24 h in a 96-well plate. Subsequently, the supernatant was aspirated and 20 μL of GSH (200 μM) and ACEi peptides (100 or 200 μM) were added in the protection groups, respectively. After 24 h, ACEi peptides were removed and H2O2 with the final concentration of 300 μM was added into the damage and protection groups for incubating 24 h.
(§4) The level of ROS was determined using DCFH2-DA assay and expressed as % control ([50]). The levels of SOD (U/mgprot), GSH-Px (U/mgprot), NO (μmol/L), and MDA (nmol/mgprot) were measured using assay kits according to manufacturer’ protocols.

H2O2-induced HUVECs [4] = test: GSH-Px activity in H2O2-induced HUVECs (assay kit); assay type: cell-based, human; conditions: 200 μM pretreatment, 300 μM H2O2, model 26.95 ± 1.09, mean ± SD, n = 3
Protocol: as §3, §4

H2O2-induced HUVECs [5] = test: NO production in H2O2-induced HUVECs (assay kit); assay type: cell-based, human; conditions: 200 μM pretreatment, 300 μM H2O2, model 15.54 ± 0.68 μM, mean ± SD, n = 3
Protocol: as §3, §4

H2O2-induced HUVECs [6] = test: MDA content in H2O2-induced HUVECs (assay kit); assay type: cell-based, human; conditions: 200 μM pretreatment, 300 μM H2O2, model 27.94 ± 1.06, mean ± SD, n = 3
Protocol: as §3, §4

H2O2-induced HUVECs [7] = test: Apoptosis rate of H2O2-induced HUVECs, Hoechst 33342; assay type: cell-based, human; conditions: 200 μM pretreatment, 300 μM H2O2, model 214.03 ± 7.11% control, mean ± SD, n = 3
Protocol: as §3
Cell treatments with ACEi peptides, GSH, and H2O2 were according to the above method ([50]). The morphology of HUVECs was observed and photographed using an inverted microscope (Nikon Corporation, Kyoto, Japan). The percentage of apoptotic HUVECs was analyzed using previous methods ([17], [50]).

H2O2-induced HUVECs [8] = test: Viability of H2O2-induced HUVECs (oxidative damage model); assay type: cell-based, human; conditions: for cell viability of H2O2-induced HUVECs: 200 μM pretreatment 24 h, then 300 μM H2O2 24 h, model group 50.31 ± 2.19%, mean ± SD, n = 3, SD
Protocol: (§5) The viability of HUVECs treated by TRP3, TRP6, TRP9, and TRP12 was determined using MTT method. HUVECs were seeded in the 96-well plates, cultured for 24 h, and treated with ACEi peptides (100, 200, and 300 μM) at 37° C for 24 h. MTT (final content of 2 mg/mL) was added into cell culture. After 4 h, DMSO was added into each well and monitored at 490 nm. The cell viability (% control) was calculated.
The oxidative damage model of HUVECs was established according to the previous method ([50]). HUVECs were seeded in the 96-well plates, cultured for 24 h, and treated with […] H2O2 at 37°C.
as §3

H2O2-induced HUVECs [9] = test: SOD activity in H2O2-induced HUVECs (assay kit); assay type: cell-based, human; conditions: 200 μM pretreatment, 300 μM H2O2, model 108.57 ± 7.56, mean ± SD, n = 3
Protocol: as §3, §4

HUVECs [10] = test: Viability of HUVECs, MTT method; assay type: cell-based, human
Protocol: as §1, §5

| Molecule | ACEi rate (ACEi activity) (ACE) | NO content in NE-treated HUVECs (HUVECs [1]) | NO level in HUVECs (HUVECs [1]) | ET-1 content in NE-treated HUVECs (HUVECs [2]) | ET-1 content in HUVECs (HUVECs [2]) | ROS level (H2O2-induced HUVECs [3]) | GSH-Px activity (H2O2-induced HUVECs [4]) | NO content (H2O2-induced HUVECs [5]) | MDA content (H2O2-induced HUVECs [6]) | total apoptosis ratio (H2O2-induced HUVECs [7]) | cell viability of H2O2-induced HUVECs (H2O2-induced HUVECs [8]) | viability of HUVECs (H2O2-induced HUVECs [8]; H2O2 300 μM alone (model establishment)) | SOD activity (H2O2-induced HUVECs [9]) | cell viability (HUVECs [10]; 300 μM, 24 h, MTT, % control, mean ± SD, n = 3) | cell viability (HUVECs [10]; 300 µM, SD) |
| --- | --- | --- | --- | --- | --- | --- | --- | --- | --- | --- | --- | --- | --- | --- | --- |
| WSPGF [TRP12, Trp-Ser-Pro-Gly-Phe] | 78.24 ± 2.81% | 26.79 ± 1.34 µM | 46.32 ± 2.03 µM | 54.71 ± 2.57 pg/mL | 45.28 ± 1.88 pg/mL | 123.7 ± 3.21 % control | 39.75 ± 1.63 U/mg prot | 22.09 ± 0.81 µM | 21.08 ± 0.92 nmol/mg prot | 162.08 ± 5.94 % control |  |  |  |  |  |
| N[C@@H](CCC(=O)N[C@@H](CS)C(=O)NCC(=O)O)C(=O)O [GSH, Glutathione, reference compound] |  |  |  |  |  |  |  | 26.98 ± 1.05 µM | 17.83 ± 0.87 nmol/mg prot | 124.52 ± 4.82 % control | 78.33 ± 3.08% |  |  |  |  |
| OO [H2O2] |  |  |  |  |  |  |  |  |  |  |  | 49.65 ± 1.68% |  |  |  |
| CC[C@H](C)[C@H](N)C(=O)N[C@@H](CCCCN)C(=O)N[C@@H](CO)C(=O)N[C@@H](Cc1c[nH]c2ccccc12)C(=O)O [TRP6, Ile-Lys-Ser-Trp] (H-IKSW-OH; N-terminus and C-terminus assumed) | 75.41 ± 2.56% | 26.51 ± 1.06 µM | 46.25 ± 1.39 µM | 55.27 ± 2.19 pg/mL | 44.68 ± 1.69 pg/mL | 127.5 ± 4.32 % control | 42.35 ± 1.86 U/mg prot | 21.26 ± 0.59 µM | 20.52 ± 0.92 nmol/mg prot | 171.21 ± 6.92 % control |  |  | 160.02 ± 9.04 U/mg prot |  |  |
| CSCC[C@H](NC(=O)[C@H](Cc1c[nH]cn1)NC(=O)[C@H](CO)NC(=O)[C@@H](N)Cc1ccc(O)cc1)C(=O)O [TRP9, Tyr-Ser-His-Met] (H-YSHM-OH) | 83.49 ± 3.42% | 28.79 ± 0.78 µM | 50.34 ± 1.45 µM | 53.27 ± 2.34 pg/mL | 41.26 ± 2.09 pg/mL | 122.4 ± 4.47 % control | 45.36 ± 2.07 U/mg prot | 23.64 ± 0.82 µM | 19.88 ± 0.75 nmol/mg prot | 135.37 ± 4.28 % control | 67.85 ± 3.05% |  |  | 91.27 ± 4.05% |  |
| H-WGESF-OH [TRP3, Trp-Gly-Glu-Ser-Phe] | 69.54 ± 3.09% | 23.69 ± 1.18 µM | 46.52 ± 1.29 µM | 59.74 ± 2.42 pg/mL | 46.87 ± 2.03 pg/mL | 128.7 ± 5.2 % control | 38.46 ± 1.25 U/mg prot | 20.38 ± 0.67 µM | 21.76 ± 0.94 nmol/mg prot | 173.12 ± 5.11 % control |  |  | 154.58 ± 3.94 U/mg prot |  | 86.72 ± 4.45% |
